Data: patent publication US6544987B2, “Compounds, compositions, and methods for stimulating neuronal growth and elongation” (Pfizer Inc., priority 1999, dated 2003)
Several values for one entry are separate records, joined by “and”; a condition that tells them apart may be missing. Identical values can stand only once.

Columns and labels:
[1] = tested on: PC12 rat pheochromocytoma cells; test: Neurite outgrowth activity in PC12 rat pheochromocytoma assay; format: cell-based; conditions: PC-12 cells; active concentration range
Method: For example, compounds may be tested to determine their neurotrophic activity using the method described by Lyons et al., Proc. Natl. Acad. Sci., 91:3191-3195 (1994). In this rat pheochromocytoma assay for neurite outgrowth, PC12 rat pheochromocytoma cells are maintained at 37° C. and 5% CO2 in Dulbecco's modified Eagle's medium (DMEM) supplemented with 10% heat-inactivated horse serum and 5% heat-inactivated fetal bovine serum. Cells are then plated, coated at 10^5 per 35 mm culture well with rat tail collagen at […], and allowed to attach. Medium is then replaced with DMEM supplemented with 2% horse serum, 1% fetal bovine serum, nerve growth factor (NGF), and/or varying concentrations of test compounds. The control cultures are administered NGF without any of the test compounds.

FKBP12 [2] = molecular target: T1, FKBP12 (Homo sapiens, UniProt P62942); test: Affinity for FKBP-12 (Ki), succinyl-Ala-Leu-Pro-Phe-pNA chymotrypsin-coupled assay; format: biochemical; design: key to FKBP12 inhibition (in Kiapps column): NI: no inhibition; NSI: no significant inhibition; conditions: for Ki: Table 2, read-out: FKBP12 Kiapps
Method: In a quartz cuvette, a final 1 mL buffer concentration was reached (50 mM Hepes, 100 mM NaCl, pH 8.0). Within this final reaction volume, 3.5 μL […] FKBP-12 (in 50 mM Hepes, 100 mM NaCl, pH 8.0) and 10 μL test compound in DMSO were added. The reaction was initiated by adding 10 μL chymotrypsin (100 mg/mL in 1 mM HCl) followed by 5 μL (1-20 mM succinyl-Ala-Leu-Pro-Phe-pNA in 240 mM LiCl/TFE).
The absorbance at 390 nm versus time was monitored for up to 400 seconds. Rate constants were determined from the absorbance versus time plots generated.

FKBP12 [3] = molecular target: T1, FKBP12; test: Rotamase inhibition assay (N-succinyl-Ala-Ala-Pro-Phe-p-nitroanilide, chymotrypsin-coupled); format: biochemical; conditions: Table 1; read-out: Rotamase Ki(app)
Method: In the rotamase inhibition assay, isomerization of an artificial substrate N-succinyl-Ala-Ala-Pro-Phe-p-nitroanilide is followed spectrophotometrically. The assay includes the cis form of the substrate, FKBP12, the compound being tested, and chymotrypsin. Chymotrypsin is able to cleave p-nitroaniline from the trans form of the substrate, but not from the cis form. Release of p-nitroaniline is measured spectrophotometrically. Using this assay, various amounts of the FKBP rotamase-inhibiting compounds of formula (I) were added to cis-N-succinyl-alanine-alanine-proline-phenylalanine-para-nitroaniline (BACHEM, 3132 Kashiwa Street, Torrance, Calif. 90505) in the presence of FKBP12 and chymotrypsin. Spectrophotometric measurements of p-nitroaniline concentrations allowed estimation of the apparent Ki values, which are provided in Table 1 below.

FKBP12 [4] = molecular target: T1, FKBP12; test: Binding to FKBP by microcalorimetry
Method: Binding of compounds to FKBP may be measured directly using microcalorimetry. Calorimetric titrations are carried out using the MCS-ITC instrument (MicroCal Inc., Northhampton, Mass.). The titrations may be conducted as follows. Protein dialysate is degassed for 15 minutes using MicroCal equipment. Stock inhibitor solution is added to co-solvent (typically DMSO) and degassed dialysate, followed by brief sonication, to produce the final inhibitor solutions to be used in the titrations. Final inhibitor solutions are in the concentration range 10 to 80 μM. Dialyzed protein is added to co-solvent and degassed dialysate to produce FKBP12 solutions in the concentration range 200 to 1600 μM. As both solutions are prepared using degassed dialysate, no additional degassing of the solutions is performed. Co-solvent is added to the protein solutions to maintain a fixed co-solvent concentration throughout the course of the titration. Protein is titrated into inhibitor using a 125-μL injection syringe. The titrations are conducted with the ligand in the cell due to low solubility of inhibitors. Typically, a preliminary 2-μL injection is followed by fifteen 8-μL injections made at varying injection intervals. A full set of dilution controls is conducted for each titration. An appropriate volume of co-solvent is added to degassed dialysate to produce the buffered co-solvent solution used to obtain heats of dilution of the reactants. After correcting for the heats of dilution and deletion of the preliminary injection, the titration results are fitted using the “One Set of Sites Model” in the ORIGIN software package supplied with the instrument.

[5] = Solubility noted in FKBP12 assay table; format: physicochemical; conditions: read-out: Sol (solubility)

T1 sequence (P62942 whole entry, species assumed): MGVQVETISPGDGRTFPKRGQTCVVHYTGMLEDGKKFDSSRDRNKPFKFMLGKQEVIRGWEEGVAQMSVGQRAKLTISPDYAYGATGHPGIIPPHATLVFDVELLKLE

For `COc1cc(NS(=O)(=O)N2CCCC[C@H]2C(=O)OCCCCc2ccccc2)cc(OC)c1OC` [Compound 25, 1-(3,4,5-Trimethoxy-phenylsulfamoyl)-piperidine-2S-carboxylic acid 4-phenyl-butyl ester], the “Neurite-Outgrowth Activity (PC-12)” value [1] was 0.001 to 1 µM, the Ki (FKBP12 [2]) was 200 nM and 180 nM and the Ki (FKBP12 [3]) was 200 nM. The Kd (FKBP12 [4]) was 1200 nM.

With `CCC(C)(C)NS(=O)(=O)N1CCC[C@H]1C(=O)OCCCc1cccnc1` [Compound 31, 1-(1,1-Dimethyl-propylsulfamoyl)-pyrrolidine-2S-carboxylic acid 3-pyridin-3-yl-propyl ester] the “Neurite-Outgrowth Activity (PC-12)” value [1] was 0.001 to 1 µM, the Ki (FKBP12 [2]) was 2790 nM and 1100 nM and the Ki (FKBP12 [3]) was 2790 nM. The Kd (FKBP12 [4]) was 4500 nM.

For `O=C(OCCCc1cccnc1)[C@@H]1CCCN1S(=O)(=O)Nc1ccccc1` [Compound 33, 1-Phenylsulfamoyl-pyrrolidine-2S-carboxylic acid 3-pyridin-3-yl-propyl ester], the “Neurite-Outgrowth Activity (PC-12)” value [1] was 0.001 to 1 µM, the Ki (FKBP12 [2]) was 3960 nM and the Kd (FKBP12 [4]) was 14000 nM.

For `COc1cc(NS(=O)(=O)N2[C@@H]3CC[C@@H](C3)[C@H]2C(=O)OCCCCc2ccccc2)cc(OC)c1OC` [Compound 84, 2-(3,4,5-Trimethoxy-phenylsulfamoyl)-2-aza-bicyclo[2.2.1]heptane-exo-3-carboxylic acid 4-phenyl-butyl ester], the “FKBP12 inhibition (in Kiapps column)” value (FKBP12 [2]; at 1 μM) was “NI” and the solubility [5] was under 30 µM.
